In patent US20260217688A1, “INHIBITORS OF JAK2” (Llydaw Therapeutics, Inc., priority 2022, published 2026) one finds CC50 and EC50 data, which are given here for five compounds.

Data set [1] is described as follows: Proliferation inhibition assay (CellTiter-Glo), Ba/F3 JAK2 wt. Type of data set: cell-based. Conditions: mouse, Ba/F3 (JAK2 wt) cells. In general terms: Cellular ATP, detected with luciferase, serves as a proxy for viable cell number.
In a further data set the target is T1, JAK2 JH2 (Homo sapiens, UniProt O60674).
T1 construct: Enzyme: JAK2 JH2, His-Avi-Tag, Biotin-Labeled (BPS Bioscience, Cat #79074) 1 nM; His; purchased BPS Bioscience 79074
T1 sequence (O60674 545-809 limits assumed): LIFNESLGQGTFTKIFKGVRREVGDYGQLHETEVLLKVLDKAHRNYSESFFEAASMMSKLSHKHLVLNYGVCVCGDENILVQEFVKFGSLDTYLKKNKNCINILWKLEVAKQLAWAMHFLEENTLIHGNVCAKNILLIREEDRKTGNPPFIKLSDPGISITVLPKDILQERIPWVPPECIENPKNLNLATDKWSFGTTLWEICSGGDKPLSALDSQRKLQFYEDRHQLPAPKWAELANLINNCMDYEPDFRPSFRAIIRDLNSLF
The data set is described as follows: JAK2 JH2 TR-FRET Assay. It is filed as binding. The note with it: JAK2 JH2 1 nM, Tracer ZE84-0003 10 nM. The method, boiled down:
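Binding by tracer displacement: biotinylated His-Avi JAK2 JH2 (1 nM) with streptavidin Tb-cryptate (0.2 nM) pre-incubated 15 min with compound (0.25% DMSO), then 10 nM tracer added, 15 min at rt. Buffer was 20 mM HEPES pH 7.2-7.4, 10 mM MgCl2, 0.015% Brij-35, 2 mM DTT, 0.05 mg/ml BSA; TR-FRET read 482/520 nm, EC50 binned A-D.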

Data set [2] in a line: Proliferation inhibition assay (CellTiter-Glo), Ba/F3 JAK2 V617F. It is filed as cell-based. The note with it: mouse, Ba/F3 (JAK2 V617F) cells; with 10 ng/ml rmIL-3, 72 h; read-out: Ba/F3 JAK2 V617F + IL3, CC50 3 days.
For a further data set, the system named is Ba/F3 (JAK2 V617F) cells. Described as above. Type of data set: cell-based. The note with it: Mus musculus, BaF3; without IL3, 72 h; read-out: Ba/F3 JAK2 V617F, CC50 3 days.
Setting [3] is: with 10 ng/ml rmIL-3, 72 h, read-out: Ba/F3 JAK2 wt + IL3, CC50 3 days.
Where [4] appears, read: without IL3, 72 h, read-out: Ba/F3 JAK2 wt, CC50 3 days.

Broadly, the EC50 is the midpoint of the concentration-response curve. Regarding `COc1c(Nc2nc(Nc3cnn(CCC(C)C)c3)ncc2C(N)=O)cccc1-c1ncn(C)n1` [Compound 24, 2-[(1-isopentylpyrazol-4-yl)amino]-4-[2-methoxy-3-(1-methyl-1,2,4-triazol-3-yl)anilino]pyrimidine-5-carboxamide], the CC50 at 72 h was 5000 to 10000 nM in data set [1] (setting [3]), above 10000 nM in data set [1] (setting [4]) and 500 to 1000 nM in data set [2]. At JAK2 JH2, this compound yielded an EC50 of 10 to 50 nM. Further, the CC50 with Ba/F3 (JAK2 V617F) cells was at most 500 nM.

For the compound `CCCCCCn1cc(Nc2ncc(C(N)=O)c(Nc3cccc(-c4ncn(C)n4)c3OC)n2)cn1` [Compound 26, 2-[(1-hexylpyrazol-4-yl)amino]-4-[2-methoxy-3-(1-methyl-1,2,4-triazol-3-yl)anilino]pyrimidine-5-carboxamide], the results for the CC50 at 72 h in data set [1] (setting [3]), in data set [1] (setting [4]) and in data set [2] were 5000 to 10000 nM, 5000 to 10000 nM and 500 to 1000 nM, respectively. The same compound gave a half-maximal effective concentration (EC50) at JAK2 JH2 of 10 to 50 nM. Besides, the CC50 in the data set on Ba/F3 (JAK2 V617F) cells is at most 500 nM.

For `COc1c(Nc2nc(Nc3cnn(CCCN(C)C)c3)ncc2C(N)=O)cccc1-c1ncn(C)n1` [Compound 28, 2-[[1-[3-(dimethylamino)propyl]pyrazol-4-yl]amino]-4-[2-methoxy-3-(1-methyl-1,2,4-triazol-3-yl)anilino]pyrimidine-5-carboxamide], the CC50 at 72 h in data set [1] (setting [3]), in data set [1] (setting [4]) and in data set [2] was above 10000 nM each time. The same compound displayed a half-maximal effective concentration (EC50) at JAK2 JH2 above 100 nM. Also, the CC50 in the data set on Ba/F3 (JAK2 V617F) cells was in the range of 5000 to 10000 nM.

Regarding `COc1c(Nc2nc(Nc3cnn(CCN(CC(C)C)CC(C)C)c3)ncc2C(N)=O)cccc1-c1ncn(C)n1` [Compound 29, 2-(1-(2-(Diisobutylamino)ethyl)-1H-pyrazol-4-ylamino)-4-(2-methoxy-3-(1-methyl-1H-1,2,4-triazol-3-yl)phenylamino)pyrimidine-5-carboxamide], the CC50 at 72 h lay in the range of 5000 to 10000 nM in data set [1] (setting [3]), 1000 to 5000 nM in data set [1] (setting [4]) and 1000 to 5000 nM in data set [2]. This compound displayed a half-maximal effective concentration (EC50) at JAK2 JH2 above 100 nM. Besides, the CC50 with Ba/F3 (JAK2 V617F) cells was at most 500 nM.

As for `COc1c(Nc2nc(Nc3cnn(C45CC6CC(CC(C6)C4)C5)c3)ncc2C(N)=O)cccc1-c1ncn(C)n1` [Compound 30, 2-((1-(1-Adamantyl)-1H-pyrazol-4-yl)amino)-4-((2-methoxy-3-(1-methyl-1H-1,2,4-triazol-3-yl)phenyl)amino)pyrimidine-5-carboxamide], the CC50 at 72 h in data set [1] (setting [3]) fell in the range of 1000 to 5000 nM; in data set [1] (setting [4]), 1000 to 5000 nM; in data set [2] it was 500 to 1000 nM. In addition, the EC50 at JAK2 JH2 was in the range of 10 to 50 nM. Further, the CC50 in the data set on Ba/F3 (JAK2 V617F) cells is at most 500 nM.
